Test results: US9040506B2, “7,11-methanocycloocta [B] quinoline derivative as highly functionalizable acetylcholinesterase inhibitors” (priority 2010, dated 2015)
Counter-ions that a name gives are not always drawn. Like-named read-outs stand apart in the source and are kept apart here.

What was measured:
[1] = biological target: rh-BuChE (Homo sapiens, UniProt P06276); experiment: IC50 rh-BuChE; assay type: biochemical
[2] = biological target: rh-AChE (Homo sapiens, UniProt P22303); experiment: biochemical
[3] = biological target: T1, erythrocyte h-AChE (Homo sapiens, UniProt P22303); experiment: IC50 erythrocyte h-AChE; assay type: biochemical; conditions: read-out: IC50 erythrocyte h-AChE
T1 construct: from tissue; host or cells: human erythrocytes
T1 sequence (P22303 32-617 isoform P22303-2 limits assumed): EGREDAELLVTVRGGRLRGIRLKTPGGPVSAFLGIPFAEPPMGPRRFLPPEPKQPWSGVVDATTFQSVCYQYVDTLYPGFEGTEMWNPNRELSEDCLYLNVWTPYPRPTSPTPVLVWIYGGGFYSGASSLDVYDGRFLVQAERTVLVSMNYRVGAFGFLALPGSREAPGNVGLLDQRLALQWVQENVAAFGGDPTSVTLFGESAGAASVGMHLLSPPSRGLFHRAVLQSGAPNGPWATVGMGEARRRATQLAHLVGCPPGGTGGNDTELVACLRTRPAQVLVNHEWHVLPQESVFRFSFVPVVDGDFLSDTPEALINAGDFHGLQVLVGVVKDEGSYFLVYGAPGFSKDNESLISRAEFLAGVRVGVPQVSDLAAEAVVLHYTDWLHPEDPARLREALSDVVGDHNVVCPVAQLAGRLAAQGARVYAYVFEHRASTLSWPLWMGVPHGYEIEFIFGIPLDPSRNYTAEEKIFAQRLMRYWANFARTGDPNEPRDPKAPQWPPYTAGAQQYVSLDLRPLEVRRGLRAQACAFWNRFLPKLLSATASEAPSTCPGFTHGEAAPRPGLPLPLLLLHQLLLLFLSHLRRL

Chain of rh-AChE (P22303 32-614): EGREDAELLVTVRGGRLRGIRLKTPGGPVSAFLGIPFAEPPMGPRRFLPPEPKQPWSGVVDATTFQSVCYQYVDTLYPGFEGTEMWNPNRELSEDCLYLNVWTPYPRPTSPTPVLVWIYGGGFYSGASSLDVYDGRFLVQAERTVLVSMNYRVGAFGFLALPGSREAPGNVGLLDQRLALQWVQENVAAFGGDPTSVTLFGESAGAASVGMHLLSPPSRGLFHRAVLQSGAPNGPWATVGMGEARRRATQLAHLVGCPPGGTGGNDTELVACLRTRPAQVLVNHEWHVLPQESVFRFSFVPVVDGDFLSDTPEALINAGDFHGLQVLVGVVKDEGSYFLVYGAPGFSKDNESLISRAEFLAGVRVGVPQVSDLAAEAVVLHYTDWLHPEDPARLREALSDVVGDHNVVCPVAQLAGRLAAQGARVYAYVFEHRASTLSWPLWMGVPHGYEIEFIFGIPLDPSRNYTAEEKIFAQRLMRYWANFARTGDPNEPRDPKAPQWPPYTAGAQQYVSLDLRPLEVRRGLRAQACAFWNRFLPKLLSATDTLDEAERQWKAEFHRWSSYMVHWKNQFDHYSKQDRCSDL
Chain of rh-BuChE (P06276 29-602): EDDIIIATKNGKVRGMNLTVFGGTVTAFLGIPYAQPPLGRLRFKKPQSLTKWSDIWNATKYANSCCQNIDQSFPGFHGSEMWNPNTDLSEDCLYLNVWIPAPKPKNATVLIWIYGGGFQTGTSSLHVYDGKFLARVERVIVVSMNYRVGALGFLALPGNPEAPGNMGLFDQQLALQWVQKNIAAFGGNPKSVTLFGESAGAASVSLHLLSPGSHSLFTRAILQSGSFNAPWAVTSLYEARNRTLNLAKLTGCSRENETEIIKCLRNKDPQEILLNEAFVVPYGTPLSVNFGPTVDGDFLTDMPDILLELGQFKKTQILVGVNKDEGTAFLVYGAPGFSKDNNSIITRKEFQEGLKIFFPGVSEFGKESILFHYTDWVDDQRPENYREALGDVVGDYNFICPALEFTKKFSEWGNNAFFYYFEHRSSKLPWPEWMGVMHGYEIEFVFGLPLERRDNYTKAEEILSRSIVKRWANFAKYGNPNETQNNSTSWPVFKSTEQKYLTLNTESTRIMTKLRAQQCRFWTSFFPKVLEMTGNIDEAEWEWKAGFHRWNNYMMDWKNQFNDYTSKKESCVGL

| SMILES | IC50 ([1]; read-out: IC50 rh-BuChE) [nM] | IC50 ([2]; read-out: IC50 rh-AChE) [nM] | IC50 [3] [nM] | IC50 [2] [nM] | IC50 [1] [nM] |
| --- | --- | --- | --- | --- | --- |
| COc1cc2c(cc1OC)C(c1ccccc1)N(Cc1cn(CCCCC3=CC4Cc5nc6cc(Cl)ccc6c(N)c5C(C3)C4)nn1)CC2 (centres unmarked) [HUP32-PIQ1, 3-Chloro-9-(4-{4-[(6,7-dimethoxy-1-phenyl-3,4-dihydroisoquinolin-2(1H)-yl)methyl]-1H-1,2,3-triazol-1-yl}butyl)-6,7,10,11-tetrahydro-7,11-methanocycloocta[b]quinolin-12-amine Ditrifluoroacetic Acid] | 20.6 ± 0.2 | 3.31 ± 0.2 |  |  |  |
| COc1cc2c(cc1OC)C(c1ccccc1)N(CCCc1cn(CCCCC3=CC4Cc5nc6cc(Cl)ccc6c(N)c5C(C3)C4)nn1)CC2 (centres unmarked) [HUP32-PIQ3, 3-Chloro-9-(4-{4-[3-(6,7-dimethoxy-1-phenyl-3,4-dihydroisoquinolin-2(1H)-yl)propyl]-1H-1,2,3-triazol-1-yl}butyl)-6,7,10,11-tetrahydro-7,11-methanocycloocta[b]quinolin-12-amine Ditrifluoroacetic Acid] | 11.4 ± 0.6 | 0.61 ± 0.1 |  |  |  |
| COc1cc2c(cc1OC)C(c1ccccc1)N(CCCCc1cn(CCCCC3=CC4Cc5nc6cc(Cl)ccc6c(N)c5C(C3)C4)nn1)CC2 (centres unmarked) [HUP32-PIQ4, 3-Chloro-9-(4-{4-[4-(6,7-dimethoxy-1-phenyl-3,4-dihydroisoquinolin-2(1H)-yl)butyl]-1H-1,2,3-triazol-1-yl}butyl)-6,7,10,11-tetrahydro-7,11-methanocycloocta[b]quinolin-12-amine Ditrifluoroacetic Acid] | 9.5 ± 0.6 | 0.78 ± 0.1 |  |  |  |
| CCOC(=O)CC1=CC2Cc3nc4cc(Cl)ccc4c(N)c3C(C1)C2 (centres unmarked) [HUP 1, Ethyl (12-Amino-3-chloro-6,7,10,11-tetrahydro-7,11-methanocycloocta[b]quinolin-9-yl)acetate] | 137 ± 11 | 3.9 ± 0.5 | 38.3 |  |  |
| C=CC1=CC2Cc3nc4cc(Cl)ccc4c(N)c3C(C1)C2 (centres unmarked) [HUP 3, 3-Chloro-9-vinyl-6,7,10,11-tetrahydro-7,11-methanocycloocta[b]quinolin-12-amine Trifluoroacetic Acid] | 180 ± 13 | 1.32 ± 0.17 | 405 |  |  |
| CC(=O)OCCC1=CC2Cc3nc4cc(Cl)ccc4c(N)c3C(C1)C2 (centres unmarked) [HUP 4, 2-(12-Amino-3-chloro-6,7,10,11-tetrahydro-7,11-methanocycloocta[b]quinolin-9-yl)ethyl Acetate] |  | 1.44 ± 0.18 | 12 |  |  |
| Nc1c2c(nc3cc(Cl)ccc13)CC1C=C(CCOC(=O)C(F)(F)F)CC2C1 (centres unmarked) [HUP 5, 2-(12-Amino-3-chloro-6,7,10,11-tetrahydro-7,11-methanocycloocta[b]quinolin-9-yl)ethyl Trifluoroacetate] | 1360 | 1.69 ± 0.16 | 27.5 |  |  |
| COCCC1=CC2Cc3nc4cc(Cl)ccc4c(N)c3C(C1)C2 (centres unmarked) [HUP 6, 3-Chloro-9-(2-methoxyethyl)-6,7,10,11-tetrahydro-7,11-methanocycloocta[b]quinolin-12-amine] | 401 ± 26 | 1.75 ± 0.21 | 4.5 |  |  |
| Nc1c2c(nc3cc(Cl)ccc13)CC1C=C(CCI)CC2C1 (centres unmarked) [HUP 7, 3-Chloro-9-(2-iodoethyl)-6,7,10,11-tetrahydro-7,11-methanocycloocta[b]quinolin-12-amine] | 141 ± 7 | 2.7 ± 0.82 |  |  |  |
| N#CCCC1=CC2Cc3nc4cc(Cl)ccc4c(N)c3C(C1)C2 (centres unmarked) [HUP 8, 3-(12-Amino-3-chloro-6,7,10,11-tetrahydro-7,11-methanocycloocta[b]quinolin-9-yl)propanenitrile Trifluoroacetic Acid] | 514 ± 58 | 3.15 ± 0.42 |  |  |  |
| Nc1c2c(nc3cc(Cl)ccc13)CC1C=C(CCCl)CC2C1 (centres unmarked) [HUP 9, 3-Chloro-9-(2-chloroethyl)-6,7,10,11-tetrahydro-7,11-methanocycloocta[b]quinolin-12-amine Trifluoroacetic Acid] | 207 ± 12 | 3.56 ± 0.2 | 5.09 |  |  |
| Nc1c2c(nc3cc(Cl)ccc13)CC1C=C(CCF)CC2C1 (centres unmarked) [HUP 10, 3-Chloro-9-(2-fluoroethyl)-6,7,10,11-tetrahydro-7,11-methanocycloocta[b]quinolin-12-amine] | 522 ± 120 | 4.16 ± 0.79 |  |  |  |
| Nc1c2c(nc3cc(Cl)ccc13)CC1C=C(CC(=O)O)CC2C1 (centres unmarked) [HUP 11, 12-Amino-3-chloro-9-carboxymethyl-6,7,10,11-tetrahydro-7,11 methanocycloocta[b]quinoline Hydrochloride] |  |  |  | 5.3 ± 1.1 |  |
| [N-]=[N+]=NCCC1=CC2Cc3nc4cc(Cl)ccc4c(N)c3C(C1)C2 (centres unmarked) [HUP 12, 9-(2-Azidoethyl)-3-chloro-6,7,10,11-tetrahydro-7,11-methanocycloocta[b]quinolin-12-amine] | 522 ± 120 | 5.56 ± 0.82 |  |  |  |
| CS(=O)(=O)OCCC1=CC2Cc3nc4cc(Cl)ccc4c(N)c3C(C1)C2 (centres unmarked) [HUP 13, 2-(12-Amino-3-chloro-6,7,10,11-tetrahydro-7,11-methanocycloocta[b]quinolin-9-yl) Ethyl Methanesulfonate] | 415 ± 97 | 8.5 ± 1.1 |  |  |  |
| NNCCC1=CC2Cc3nc4cc(Cl)ccc4c(N)c3C(C1)C2 (centres unmarked) [HUP 14, 3-Chloro-9-(2-hydrazinoethyl)-6,7,10,11-tetrahydro-7,11-methanocyclo octa[b]quinolin-12-amine Ditrifluoroacetic Acid] |  | 9.5 ± 2.7 |  |  | 668 ± 110 |

| SMILES | IC50 ([1]; read-out: IC50 rh-BuChE) [nM] | IC50 ([2]; read-out: IC50 rh-AChE) [nM] | IC50 [3] [nM] | IC50 [2] [nM] | IC50 [1] [nM] |
| --- | --- | --- | --- | --- | --- |
| Nc1c2c(nc3cc(Cl)ccc13)CC1C=C(CCNO)CC2C1 (centres unmarked) [HUP 15, 3-Chloro-9-[2-(hydroxyamino)ethyl]-6,7,10,11-tetrahydro-7,11-methano cycloocta[b]quinolin-12-amine Ditrifluoroacetic Acid] |  | 18.5 ± 2.2 |  |  |  |
| CC(C)(C)OC(=O)ON(CCC1=CC2Cc3nc4cc(Cl)ccc4c(N)c3C(C1)C2)C(=O)OC(C)(C)C (centres unmarked) [HUP 16, Tert-butyl[2-(12-amino-3-chloro-6,7,10,11-tetrahydro-7,11-methanocycloocta[b]quinolin-9-yl)ethyl][(tert-butoxycarbonyl)oxy]carbamate] | 421 ± 72 | 14.8 ± 3.2 |  |  |  |
| NC(=O)OCCC1=CC2Cc3nc4cc(Cl)ccc4c(N)c3C(C1)C2 (centres unmarked) [HUP 17, 2-(12-Amino-3-chloro-6,7,10,11-tetrahydro-7,11-methanocycloocta[b]quinolin-9-yl)ethyl Carbamate Trifluoroacetic Acid] | 413 ± 40 | 18.5 ± 2.2 |  |  |  |
| CN(C)C(=O)CC1=CC2Cc3nc4cc(Cl)ccc4c(N)c3C(C1)C2 (centres unmarked) [HUP 19, 2-(12-Amino-3-chloro-6,7,10,11-tetrahydro-7,11-methanocycloocta[b]quinolin-9-yl)-N,N-dimethylacetamide Trifluoroacetic Acid] | 2760 | 26.3 ± 1.7 |  |  |  |
| NC(=O)CC1=CC2Cc3nc4cc(Cl)ccc4c(N)c3C(C1)C2 (centres unmarked) [HUP 20, 2-(12-Amino-3-chloro-6,7,10,11-tetrahydro-7,11-methanocycloocta[b]quinolin-9-yl)acetamide Trifluoroacetic Acid] |  | 29.3 ± 3.7 |  |  |  |
| CN(C)CCC1=CC2Cc3nc4cc(Cl)ccc4c(N)c3C(C1)C2 (centres unmarked) [HUP 21, 3-Chloro-9-[2-(dimethylamino)ethyl]-6,7,10,11-tetrahydro-7,11-methano cycloocta[b]quinolin-12-amine Ditrifluoroacetic Acid] |  | 97 ± 10 |  |  | 2910 |
| COC(=O)c1cn(CCC2=CC3Cc4nc5cc(Cl)ccc5c(N)c4C(C2)C3)nn1 (centres unmarked) [HUP 22, Methyl 1-[2-(12-amino-3-chloro-6,7,10,11-tetrahydro-7,11-methanocycloocta[b]quinolin-9-yl)ethyl]-1H-1,2,3-triazole-4-carboxylate] |  | 130 ± 15 |  |  |  |
| Nc1c2c(nc3cc(Cl)ccc13)CC1C=C(CCn3cc(CO)nn3)CC2C1 (centres unmarked) [HUP 23, {1-[2-(12-Amino-3-chloro-6,7,10,11-tetrahydro-7,11-methanocycloocta[b]quinolin-9-yl)ethyl]-1H-1,2,3-triazol-4-yl}methanol Trifluoroacetic Acid] |  | 210 ± 28 |  |  |  |
| C[N+](C)(C)CCC1=CC2Cc3nc4cc(Cl)ccc4c(N)c3C(C1)C2 (centres unmarked) [HUP 25, 2-(12-Amino-3-chloro-6,7,10,11-tetrahydro-7,11-methanocycloocta[b]quinolin-9-yl)-N,N,N-trimethylethanaminium Ditrifluoroacetic Acid] |  | 262 ± 22 |  |  |  |
| Nc1c2c(nc3cc(Cl)ccc13)CC1C=C(CCC(CO)CO)CC2C1 (centres unmarked) [HUP 28, 2-[2-(12-Amino-3-chloro-6,7,10,11-tetrahydro-7,11-methanocycloocta[b]quinolin-9-yl)ethyl]propane-1,3-diol Trifluoroactic Acid] |  | 24.7 ± 1.2 | 40.2 |  |  |
| Nc1c2c(nc3cc(Cl)ccc13)CC1C=C(CCCCn3cc(COC(=O)C(F)(F)F)nn3)CC2C1 (centres unmarked) [HUP 35, {1-[4-(12-Amino-3-chloro-6,7,10,11-tetrahydro-7,11-methanocycloocta[b]quinolin-9-yl)butyl]-1H-1,2,3-triazol-4-yl}methyl Trifluoroacetate] |  | 34.6 ± 2.6 | 69.8 |  |  |
| C=C1c2nc3cc(Cl)ccc3c(N)c2C2CC(CCCC(=O)OCC)=CC1C2 (centres unmarked) [HUP 36, Ethyl 4-(12-Amino-3-chloro-6-methylene-6,7,10,11-tetrahydro-7,11-methanocycloocta[b]quinolin-9-yl)butanoate] |  | 90.6 ± 8.4 |  |  |  |
| C=C1c2nc3cc(Cl)ccc3c(N)c2C2CC(CCCCO)=CC1C2 (centres unmarked) [HUP 37, 4-(12-Amino-3-chloro-6-methylene-6,7,10,11-tetrahydro-7,11-methanocycloocta[b]quinolin-9-yl)butan-1-ol Trifluoroacetic Acid] |  | 256 ± 34 |  |  |  |
| Nc1c2c(nc3ccccc13)CC1C=C(CCCCn3cc(CO)nn3)CC2C1 (centres unmarked) [HUP 38, {1-[4-(12-Amino-6,7,10,11-tetrahydro-7,11-methanocycloocta[b]quinolin-9-yl)butyl]-1H-1,2,3-triazol-4-yl}methanol Trifluoroacetic Acid] | 357 ± 16 | 94.1 ± 2.8 |  |  |  |
| CS(=O)(=O)OCCC1=CC2Cc3nc4ccccc4c(N)c3C(C1)C2 (centres unmarked) [HUP 39, 2-(12-Amino-6,7,10,11-tetrahydro-7,11-methanocycloocta[b]quinolin-9-yl) Ethyl Methanesulfonate] | 171 ± 4 | 149 ± 6 |  |  |  |
